The values that follow come from ChEMBL document CHEMBL1147034, “Synthesis and evaluation of 2',4',6'-trihydroxychalcones as a new class of tyrosinase inhibitors” (Bioorg Med Chem, 2007).

SMILES strings stand for the structures. Bounds are passed on as bounds.

One test addresses T1, Tyrosinase (Agaricus bisporus, UniProt O42713).
T1 sequence (O42713 whole entry): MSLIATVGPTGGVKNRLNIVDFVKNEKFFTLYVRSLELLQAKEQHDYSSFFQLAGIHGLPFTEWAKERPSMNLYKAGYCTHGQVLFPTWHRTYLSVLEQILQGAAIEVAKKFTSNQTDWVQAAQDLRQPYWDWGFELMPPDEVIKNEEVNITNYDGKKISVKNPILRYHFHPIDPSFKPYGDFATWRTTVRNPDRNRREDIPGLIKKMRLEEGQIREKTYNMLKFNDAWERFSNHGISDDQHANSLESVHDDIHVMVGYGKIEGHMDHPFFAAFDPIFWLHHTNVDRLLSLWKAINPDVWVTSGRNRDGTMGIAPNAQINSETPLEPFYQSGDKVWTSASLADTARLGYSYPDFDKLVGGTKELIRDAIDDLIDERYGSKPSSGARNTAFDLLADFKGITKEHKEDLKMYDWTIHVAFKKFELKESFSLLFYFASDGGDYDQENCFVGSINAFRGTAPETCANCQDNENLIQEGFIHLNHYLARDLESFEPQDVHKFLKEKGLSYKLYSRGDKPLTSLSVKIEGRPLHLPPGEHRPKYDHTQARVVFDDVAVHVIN
With `O=C(/C=C/c1cccc(O)c1O)c1c(O)cc(O)cc1O`, the IC50 was 193 µM.

In the case of `O=C(/C=C/c1ccc(O)cc1O)c1ccc(O)cc1O`, the IC50 was 5 µM.

Regarding `O=C(/C=C/c1ccc(O)cc1O)c1c(O)cc(O)cc1O`, inhibition was half-maximal at 1 µM (IC50) and the inhibition constant (Ki) amounted to 3.1 µM.

In turn, `COc1cc(O)cc(O)c1C(=O)/C=C/c1ccc(O)cc1O` displayed an IC50 of 3.1 µM.

In the case of `O=C(/C=C/c1cc(O)c(O)c(O)c1)c1c(O)cc(O)cc1O`, half-maximal inhibition (IC50) required 200 µM.

`COc1ccc(/C=C/C(=O)c2c(O)cc(O)cc2O)cc1OC`: the half-maximal inhibitory concentration (IC50) worked out at 150 µM.

The target in the next test is T2, Tyrosinase (Agaricus bisporus) (UniProt O42713).
T2 sequence (whole entry): T1 sequence (O42713 whole entry)
The experiment in a line: Inhibition of mushroom tyrosinase at 400 uM.
`O=C(/C=C/c1ccc(O)c(O)c1)c1ccccc1O` had an inhibition of less than 20%.

Consider `O=C(/C=C/c1ccc(O)c(O)c1)c1ccc(O)c(O)c1`, for which the inhibition was less than 20%.

Compound `O=C(/C=C/c1ccc(O)cc1O)c1c(O)cc(O)cc1O` gave an inhibition of 72%.

Take `O=C(/C=C/c1ccc(O)c(O)c1)c1c(O)cc(O)cc1O`: the inhibition is less than 20%.

`O=C(/C=C/c1ccccc1)c1c(O)cccc1O` displayed an inhibition of less than 20%.

Take `O=C(/C=C/c1ccccc1)c1ccc(O)cc1O`: the inhibition is less than 20%.

On to `COc1cc(O)c(C(=O)/C=C/c2cc(O)c(O)c(O)c2)c(OC)c1`, for which the inhibition was less than 20%.

The compound `COc1cc(O)c(C(=O)/C=C/c2ccc(O)c(O)c2)c(OC)c1` came in with an inhibition of less than 20%.

In the case of `COc1cc(O)c(C(=O)/C=C/c2cccc(O)c2O)c(OC)c1`, the inhibition was less than 20%.
